The results in this text go back to patent US20240018136A1, “CDK Inhibitors And Their Use As Pharmaceuticals” (Prelude Therapeutics, Incorporated, priority 2022, published 2024).

As a reminder, the IC50 is the midpoint of a concentration-inhibition curve.

The target in one assay is CDK2/Cyclin E2 (Homo sapiens, UniProt P24941). In words: CDK2/CyclinE2 enzymatic activity assay (TR-FRET). It is filed as biochemical. The settings on record: ATP 1 mM final, read-out: CDK2_E1 IC50. Here is the method: CDK2/CyclinE2 Enzymatic Activity Assay
(§1) The inhibitory activity of compounds was evaluated in vitro using TR-FRET assay with white 384-well low volume microplate (Greiner Bio-One). CDK2/Cyclin E2 catalyzed phosphorylation of peptide in the presence and absence of compounds was measured and used in IC50 determination. Recombinant protein complex CDK2/Cyclin E2, expressed from insect cell, was purchased from ProQinase. Testing compounds were dissolved in DMSO at 1 mM and tested in 9-dose IC50 mode. The reaction mixture was prepared by mixing CDK2/CyclinE2 (1 nM final), ULight-4E-BP1 (50 nM final, Perkinelmer, TRF0128-D), and ATP (1 mM final) in assay buffer (20 mM of HEPES pH 7.4, 1 mM of EGTA, 0.05% BSA, 0.005% Tween 20, and 1 mM TCEP). The compound of interest in DMSO was added to each well in 3-fold serial dilution by dispenser (TECAN D300E) to make a 9.9 μL of reaction mixture. After 20 minutes preincubation at room temperature, 0.1 μL MgCl2 (10 mM final) was added to initiate the reaction. Following a 45 minute incubation at 37° C., the reaction was stopped by addition of 2 μL of quenching buffer consisting of Lance detection buffer (Perkinelmer CR97-100C), LANCE Ultra Europium-anti-P-4E-BP1 (Perkinelmer, TRF0216-D), EDTA, and incubate at room temperature for an additional 60 minutes in the dark. The reaction signal was measured by Envision multimode plate reader (PerkinElmer, 2102-0010). IC50 values were determined by fitting the data to the standard 4 parameters with Hill Slope using GraphPad Prism software.
Background: TR-FRET usually uses a lanthanide donor and a delayed reading to cut background.

Another assay concerns the target T1, CDK4/Cyclin D1 (Homo sapiens, UniProt P11802).
T1 construct: purchased ProQinase; host or cells: insect cell
In words: CDK4/CyclinD1 enzymatic activity assay (TR-FRET). It is filed as biochemical. The settings on record: ATP 2 mM final, read-out: CDK4_D1 IC50. As to the method:
CDK4/CyclinD1 Enzymatic Activity Assay
as §1, with “Bio-One). CDK4/Cyclin D1” for “Bio-One). CDK2/Cyclin E2”, “in IC5” for “in IC50”, “complex CDK4/Cyclin D1,” for “complex CDK2/Cyclin E2,”, “mixing CDK4/CyclinD1” for “mixing CDK2/CyclinE2”, “ULight-4E-BP1 (100” for “ULight-4E-BP1 (50”, “ATP (2” for “ATP (1”

A further assay concerns OVCAR3 p-RB. In words: pRB ICW assay in OVCAR3 cells. It is filed as cell-based. The following applies: Homo sapiens, OVCAR-3, incubated with compound for 2 hours. Here is the method: pRB ICW Assay in OVCAR3 Cells
OVCAR3 cells were maintained in RPMI (Corning, Catalog #: 10-040-CV) supplemented with 10% v/v FBS (Gibco, Catalog #: 26140-079), 1% v/v Penicillin Streptomycin (Gibco, Catalog #15140-122.) OVCAR3 cells grown at log phase were trypsinized, counted, and resuspended in fresh medium to reach a final density of 6.7e4 cells/mL and 75 μL of culture were dispensed into a 384-well plate (Falcon, cat #353962) using Multidrop Combi dispenser (Thermo Scientific). The next day, compounds were dispensed as a 9-point, ½ log serial dilution using a Tecan digital dispenser (D300e), and cells were incubated with compound for 2 hours in a humidified incubator at 37° C. A reference compound at a final concentration of 10 μM was used as a control for maximum inhibition. Each compound was tested in duplicates in each experiment. At the end of the incubation, 25 μL of 16% paraformaldehyde (Electron Microscopy, cat #15710) was slowly added to each well and the plate was incubated at room temperature (RT) for 30 minutes to fix cells. Cells were then permeabilized by incubating with 50 μL/well of wash buffer (lx PBS with 0.1% Triton X-100) 5×5 minutes, followed by 1 hour blocking with 30 μL/well of Odyssey blocking buffer (Li-COR, cat #927-40000), all at RT. Anti-phosphor RB antibody (Cell signaling 8516S) was diluted 1:1000 in Odyssey blocking buffer and 20 μL was added to all wells and incubated overnight in 4° C. with gently rocking. The next day, cells were washed 5×5 min with 50 μL/well of wash buffer, followed with 1 hour incubation with secondary antibody and DRAQ5 diluted in Odyssey blocking buffer (1:500 dilution for secondary antibody and 1:2000 dilution for DRAQ5), 5×5 min washes, and one last wash with water. Plates were dried in 37° C. oven for 5 min and scanned using Li-COR Odyssey CLx imaging system to acquire intensities at 700 and 800 nm channels.

Some results are limits rather than exact numbers.

T1 sequence (P11802 whole entry): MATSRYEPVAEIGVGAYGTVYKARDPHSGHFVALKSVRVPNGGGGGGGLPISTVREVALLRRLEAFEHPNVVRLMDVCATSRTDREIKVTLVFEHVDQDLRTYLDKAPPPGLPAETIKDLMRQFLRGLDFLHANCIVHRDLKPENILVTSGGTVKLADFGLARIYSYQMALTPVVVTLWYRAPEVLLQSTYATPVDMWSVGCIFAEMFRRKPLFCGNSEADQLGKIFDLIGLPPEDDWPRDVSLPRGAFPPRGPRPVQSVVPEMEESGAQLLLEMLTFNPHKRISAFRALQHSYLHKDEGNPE
T1 sequence (P24385 whole entry partner): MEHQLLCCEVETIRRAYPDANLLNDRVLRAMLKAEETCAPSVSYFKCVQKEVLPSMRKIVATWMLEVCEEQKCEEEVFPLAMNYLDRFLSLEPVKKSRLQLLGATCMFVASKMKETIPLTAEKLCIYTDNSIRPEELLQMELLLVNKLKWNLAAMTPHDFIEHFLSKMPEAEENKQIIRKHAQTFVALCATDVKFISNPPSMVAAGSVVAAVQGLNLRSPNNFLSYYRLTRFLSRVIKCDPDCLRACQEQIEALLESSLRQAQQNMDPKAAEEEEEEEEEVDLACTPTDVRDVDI

In the case of `CC(C)Oc1ncc(-c2nc(NC3CCN(S(C)(=O)=O)CC3)ncc2C(F)(F)F)s1` [Example 25, N-(1-Methylsulfonylpiperidin-4-yl)-4-(2-propan-2-yloxy-1,3-thiazol-5-yl)-5-(trifluoromethyl)pyrimidin-2-amine], the IC50 at CDK2/Cyclin E2 is not above 100 nM; on CDK4/Cyclin D1, not above 100 nM; in the assay with OVCAR3 p-RB, 100 to 1000 nM.

In the case of `CS(=O)(=O)N1CCC(Nc2ncc(C(F)(F)F)c(-c3cnc(Cl)s3)n2)CC1` [Example 26, 4-(2-chlorothiazol-5-yl)-N-(1-(methylsulfonyl)piperidin-4-yl)-5-(trifluoromethyl) pyrimidin-2-amine], the IC50 is not above 100 nM at CDK2/Cyclin E2, 100 to 1000 nM at CDK4/Cyclin D1 and 100 to 1000 nM with OVCAR3 p-RB.

In the case of `CS(=O)(=O)N1CCC(Nc2ncc(C(F)(F)F)c(-c3cnc(OC4CCCC4)s3)n2)CC1` [Example 27, 4-(2-(cyclopentyloxy)thiazol-5-yl)-N-(1-(methylsulfonyl)piperidin-4-yl)-5-(trifluoromethyl)pyrimidin-2-amine], the IC50 on CDK2/Cyclin E2 is not above 100 nM; at CDK4/Cyclin D1, not above 100 nM; in the assay with OVCAR3 p-RB it was more than 1000 nM.

Regarding `CNc1ncc(-c2nc(NC3CCN(S(C)(=O)=O)CC3)ncc2C(F)(F)F)s1` [Example 28, N-methyl-5-[2-[(1-methylsulfonylpiperidin-4-yl)amino]-5-(trifluoromethyl)pyrimidin-4-yl]-1,3-thiazol-2-amine], the IC50 on CDK2/Cyclin E2, on CDK4/Cyclin D1 and in the assay on OVCAR3 p-RB was not above 100 nM each time.

With `CN(C)c1ncc(-c2nc(NC3CCN(S(C)(=O)=O)CC3)ncc2C(F)(F)F)s1` [Example 29, N,N-dimethyl-5-[2-[(1-methylsulfonylpiperidin-4-yl)amino]-5-(trifluoromethyl)pyrimidin-4-yl]-1,3-thiazol-2-amine], the IC50 on CDK2/Cyclin E2 is not above 100 nM; on CDK4/Cyclin D1 it was not above 100 nM; with OVCAR3 p-RB, 100 to 1000 nM.

`CC(O)C(C)Nc1ncc(-c2nc(NC3CCN(S(C)(=O)=O)CC3)ncc2C(F)(F)F)s1` (stereo not drawn) [Example 30, 3-[[5-[2-[(1-methylsulfonylpiperidin-4-yl)amino]-5-(trifluoromethyl)pyrimidin-4-yl]-1,3-thiazol-2-yl]amino]butan-2-ol]: the IC50 on CDK2/Cyclin E2, at CDK4/Cyclin D1 and in the assay on OVCAR3 p-RB was not above 100 nM each time.

For `CS(=O)(=O)N1CCC(Nc2ncc(C(F)(F)F)c(-c3cnc(NCCO)s3)n2)CC1` [Example 31, 2-[[5-[2-[(1-methylsulfonylpiperidin-4-yl)amino]-5-(trifluoromethyl)pyrimidin-4-yl]-1,3-thiazol-2-yl]amino]ethanol], the half-inhibitory concentration (IC50) at CDK2/Cyclin E2 was not above 100 nM; on CDK4/Cyclin D1, not above 100 nM; with OVCAR3 p-RB it was 100 to 1000 nM.

As to `CCNc1ncc(-c2nc(NC3CCN(S(C)(=O)=O)CC3)ncc2C(F)(F)F)s1` [Example 32, N-ethyl-5-[2-[(1-methylsulfonylpiperidin-4-yl)amino]-5-(trifluoromethyl)pyrimidin-4-yl]-1,3-thiazol-2-amine], the IC50 at CDK2/Cyclin E2 is not above 100 nM; on CDK4/Cyclin D1, not above 100 nM; in the assay on OVCAR3 p-RB, 100 to 1000 nM.

As to `CN(c1ncc(-c2nc(NC3CCN(S(C)(=O)=O)CC3)ncc2C(F)(F)F)s1)C1CCCC1` [Example 33, N-cyclopentyl-N-methyl-5-(2-((1-(methylsulfonyl)piperidin-4-yl)amino)-5-(trifluoromethyl)pyrimidin-4-yl)thiazol-2-amine], the figures for the half-maximal inhibitory concentration (IC50) on CDK2/Cyclin E2, at CDK4/Cyclin D1 and in the assay with OVCAR3 p-RB were not above 100 nM, not above 100 nM and more than 1000 nM, respectively.

`CN(c1ncc(-c2nc(NC3CCN(S(C)(=O)=O)CC3)ncc2C(F)(F)F)s1)[C@@H]1CCC[C@H]1O` [Example 34, (1R,2R)-2-(methyl(5-(2-((1-(methylsulfonyl)piperidin-4-yl)amino)-5-(trifluoromethyl)pyrimidin-4-yl)thiazol-2-yl)amino)cyclopentan-1-ol]: the values for the half-maximal inhibitory concentration (IC50) at CDK2/Cyclin E2, at CDK4/Cyclin D1 and in the assay with OVCAR3 p-RB were not above 100 nM, not above 100 nM and 100 to 1000 nM, respectively.

With `CN(CCO)c1ncc(-c2nc(NC3CCN(S(C)(=O)=O)CC3)ncc2C(F)(F)F)s1` [Example 35, 2-(methyl(5-(2-((1-(methylsulfonyl)piperidin-4-yl)amino)-5-(trifluoromethyl)pyrimidin-4-yl)thiazol-2-yl)amino)ethan-1-ol], the figures for the IC50 on CDK2/Cyclin E2, at CDK4/Cyclin D1 and in the assay with OVCAR3 p-RB were not above 100 nM, not above 100 nM and 100 to 1000 nM, respectively.

Consider `CS(=O)(=O)N1CCC(Nc2ncc(C(F)(F)F)c(-c3cnc(NC4CC4)s3)n2)CC1` [Example 36, N-Cyclopropyl-5-[2-[(1-methylsulfonylpiperidin-4-yl)amino]-5-(trifluoromethyl)pyrimidin-4-yl]-1,3-thiazol-2-amine], for which the IC50 was not above 100 nM on CDK2/Cyclin E2, not above 100 nM at CDK4/Cyclin D1 and 100 to 1000 nM with OVCAR3 p-RB.

As to `C[C@@]1(O)CCC[C@H]1Nc1ncc(-c2nc(NC3CCN(S(C)(=O)=O)CC3)ncc2C(F)(F)F)s1` [Example 37, (1R,2R)-1-Methyl-2-[[5-[2-[(1-methylsulfonylpiperidin-4-yl)amino]-5-(trifluoromethyl)pyrimidin-4-yl]-1,3-thiazol-2-yl]amino]cyclopentan-1-ol], the IC50 on CDK2/Cyclin E2 is not above 100 nM; on CDK4/Cyclin D1, not above 100 nM; with OVCAR3 p-RB, 100 to 1000 nM.

`CS(=O)(=O)N1CCC(Nc2ncc(C(F)(F)F)c(-c3cnc(NC4COC4)s3)n2)CC1` [Example 38, 5-[2-[(1-Methylsulfonylpiperidin-4-yl)amino]-5-(trifluoromethyl)pyrimidin-4-yl]-N-(oxetan-3-yl)-1,3-thiazol-2-amine]: the values for the IC50 on CDK2/Cyclin E2, on CDK4/Cyclin D1 and in the assay with OVCAR3 p-RB were not above 100 nM, not above 100 nM and 100 to 1000 nM, respectively.

As for `[2H]C([2H])([2H])Nc1ncc(-c2nc(NC3CCN(S(C)(=O)=O)CC3)ncc2C(F)(F)F)s1` [Example 39, 5-[2-[(1-Methylsulfonylpiperidin-4-yl)amino]-5-(trifluoromethyl)pyrimidin-4-yl]-N-(trideuteriomethyl)-1,3-thiazol-2-amine], the 50% inhibitory concentration (IC50) was not above 100 nM on CDK2/Cyclin E2, not above 100 nM at CDK4/Cyclin D1 and 100 to 1000 nM with OVCAR3 p-RB.

Take `CS(=O)(=O)N1CCC(Nc2ncc(C(F)(F)F)c(-c3cnc(NCCF)s3)n2)CC1` [Example 40, N-(2-Fluoroethyl)-5-[2-[(1-methylsulfonylpiperidin-4-yl)amino]-5-(trifluoromethyl)pyrimidin-4-yl]-1,3-thiazol-2-amine]: the 50% inhibitory concentration (IC50) was not above 100 nM at CDK2/Cyclin E2, not above 100 nM at CDK4/Cyclin D1 and 100 to 1000 nM in the assay with OVCAR3 p-RB.
